IC50 data for 26 compounds are collected here from patent US8471005B2 (Cephalon, Inc., priority 2008, dated 2013).

Where two headings read alike, the source gives them in different places. Bounds are passed on as bounds.

For experiment [1], the target named is T1, JAK2 (Homo sapiens, UniProt O60674).
T1 construct: host or cells: baculovirus expression system
Put plainly: Recombinant Human JAK2 Kinase Assay (TRF). The experiment is classed as biochemical. The conditions noted are these: read-out: JAK2 Potency. The method, boiled down:
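Baculovirus-expressed JAK2 (15 ng/ml) phosphorylated a biotinylated 15-mer peptide captured on Neutravidin-coated plates, in 20 mM HEPES pH 7.2 with 0.2 μM ATP, 1 mM MnCl2, 0.1% BSA and 2.5% DMSO. Reaction ran 20 min at room temperature; phosphopeptide was detected by time-resolved fluorescence with Eu-N1-labelled PY100 antibody.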

Experiment [2] has as its target T2, ALK (Homo sapiens, UniProt Q9UM73).
T2 construct: host or cells: baculovirus expression system
Description: ALK Kinase Assay (ELISA/TRF, PLC-γ substrate). The experiment is classed as biochemical. The conditions noted are these: read-out: ALK Potency. The method, boiled down: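 PLC-γ coat 10 μg/mL in TBS; ALK 30 ng/ml added to start; 37° C, 15 min; Eu-N1 PT66 antibody detection (TRF). IC50: % inhibition vs log10 [cpd], variable-slope sigmoidal fit.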
On the technique in general: ELISA stands for enzyme-linked immunosorbent assay.

The mark [3] stands for this setting: JAK2 kinase inhibition, 0.2 μM ATP.
Setting [4] is: ALK kinase inhibition, 1 μM ATP.

T1 sequence (O60674 whole entry): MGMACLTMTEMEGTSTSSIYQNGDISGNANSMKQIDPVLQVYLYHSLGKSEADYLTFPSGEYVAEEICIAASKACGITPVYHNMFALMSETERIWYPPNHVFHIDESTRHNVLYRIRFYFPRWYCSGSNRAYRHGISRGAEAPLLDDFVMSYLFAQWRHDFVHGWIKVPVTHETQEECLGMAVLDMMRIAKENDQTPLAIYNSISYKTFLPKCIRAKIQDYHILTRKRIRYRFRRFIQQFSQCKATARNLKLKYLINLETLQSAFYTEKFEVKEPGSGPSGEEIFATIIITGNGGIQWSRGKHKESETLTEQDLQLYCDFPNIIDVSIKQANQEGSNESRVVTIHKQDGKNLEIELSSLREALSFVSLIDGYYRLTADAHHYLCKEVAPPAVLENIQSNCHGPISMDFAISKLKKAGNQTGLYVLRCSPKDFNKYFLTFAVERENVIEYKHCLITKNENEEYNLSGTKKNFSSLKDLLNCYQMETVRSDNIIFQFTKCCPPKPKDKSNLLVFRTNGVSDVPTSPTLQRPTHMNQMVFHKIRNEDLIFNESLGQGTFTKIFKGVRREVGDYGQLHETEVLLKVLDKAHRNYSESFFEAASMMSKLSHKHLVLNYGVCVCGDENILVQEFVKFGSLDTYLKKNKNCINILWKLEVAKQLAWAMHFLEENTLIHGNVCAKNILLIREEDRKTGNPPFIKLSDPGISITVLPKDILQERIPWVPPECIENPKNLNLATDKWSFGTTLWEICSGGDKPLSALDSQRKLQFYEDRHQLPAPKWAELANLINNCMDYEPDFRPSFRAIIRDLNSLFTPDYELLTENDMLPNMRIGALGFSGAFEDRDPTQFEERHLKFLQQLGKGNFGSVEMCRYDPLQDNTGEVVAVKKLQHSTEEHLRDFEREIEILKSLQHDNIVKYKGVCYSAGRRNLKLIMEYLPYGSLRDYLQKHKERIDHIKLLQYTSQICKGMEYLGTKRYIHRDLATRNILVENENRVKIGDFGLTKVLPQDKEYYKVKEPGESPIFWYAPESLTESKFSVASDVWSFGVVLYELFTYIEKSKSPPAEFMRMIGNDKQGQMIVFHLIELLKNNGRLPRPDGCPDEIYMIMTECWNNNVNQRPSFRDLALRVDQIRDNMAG
T2 sequence (Q9UM73 19-1620): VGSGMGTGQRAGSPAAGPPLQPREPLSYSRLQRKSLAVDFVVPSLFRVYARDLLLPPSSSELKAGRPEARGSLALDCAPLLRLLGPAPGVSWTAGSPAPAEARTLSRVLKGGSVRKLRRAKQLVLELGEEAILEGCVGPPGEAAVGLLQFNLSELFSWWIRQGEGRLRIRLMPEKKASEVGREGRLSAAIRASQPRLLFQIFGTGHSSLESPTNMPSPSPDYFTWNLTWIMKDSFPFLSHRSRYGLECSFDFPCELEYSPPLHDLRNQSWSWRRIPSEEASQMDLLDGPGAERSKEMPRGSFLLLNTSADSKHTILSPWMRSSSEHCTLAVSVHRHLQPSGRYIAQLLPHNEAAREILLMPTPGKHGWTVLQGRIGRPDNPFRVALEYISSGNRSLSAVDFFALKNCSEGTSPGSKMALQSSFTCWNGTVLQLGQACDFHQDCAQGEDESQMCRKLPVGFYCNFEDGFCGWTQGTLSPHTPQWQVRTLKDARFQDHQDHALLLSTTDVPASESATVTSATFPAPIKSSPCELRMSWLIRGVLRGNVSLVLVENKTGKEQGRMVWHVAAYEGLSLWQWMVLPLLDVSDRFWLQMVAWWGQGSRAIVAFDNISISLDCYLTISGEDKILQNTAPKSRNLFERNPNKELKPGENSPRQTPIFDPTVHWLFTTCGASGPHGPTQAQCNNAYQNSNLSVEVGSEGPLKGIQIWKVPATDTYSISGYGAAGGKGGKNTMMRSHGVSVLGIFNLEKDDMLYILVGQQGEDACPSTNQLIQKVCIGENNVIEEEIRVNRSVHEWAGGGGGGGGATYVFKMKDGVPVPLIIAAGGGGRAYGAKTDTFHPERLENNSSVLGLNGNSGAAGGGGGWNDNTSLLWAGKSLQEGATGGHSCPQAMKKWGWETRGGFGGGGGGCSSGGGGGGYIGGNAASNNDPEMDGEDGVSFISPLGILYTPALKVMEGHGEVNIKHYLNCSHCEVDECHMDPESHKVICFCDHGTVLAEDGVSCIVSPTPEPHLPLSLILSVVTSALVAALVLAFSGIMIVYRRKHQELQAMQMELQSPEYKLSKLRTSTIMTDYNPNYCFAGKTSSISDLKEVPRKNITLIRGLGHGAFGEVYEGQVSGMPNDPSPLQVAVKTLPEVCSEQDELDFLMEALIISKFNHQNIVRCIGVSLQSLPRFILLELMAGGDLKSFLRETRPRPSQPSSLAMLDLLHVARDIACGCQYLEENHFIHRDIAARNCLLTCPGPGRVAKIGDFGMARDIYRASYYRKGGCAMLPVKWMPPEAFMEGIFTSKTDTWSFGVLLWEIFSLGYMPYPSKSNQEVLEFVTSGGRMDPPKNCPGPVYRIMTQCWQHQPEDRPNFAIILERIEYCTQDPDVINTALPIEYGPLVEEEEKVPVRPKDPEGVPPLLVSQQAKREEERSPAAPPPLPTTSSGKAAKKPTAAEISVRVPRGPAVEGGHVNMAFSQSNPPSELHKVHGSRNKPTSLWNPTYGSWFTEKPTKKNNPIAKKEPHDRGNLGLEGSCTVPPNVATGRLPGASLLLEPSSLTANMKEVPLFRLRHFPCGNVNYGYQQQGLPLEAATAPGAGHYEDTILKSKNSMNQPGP

Regarding `COc1ccc(CN2CCN(C)CC2)cc1Nc1ncc2ccc(-c3ccccc3OC)n2n1` [Example 495, [2-Methoxy-5-(4-methyl-piperazin-1-ylmethyl)-phenyl]-[7-(2-methoxy-phenyl)-pyrrolo[2,1-f][1,2,4]triazin-2-yl]-amine], the IC50 in experiment [1] (setting [3]) was less than 0.1 µM; in experiment [2] (setting [4]), 1 to 10 µM.
For `COc1ccccc1-c1ccc2cnc(Nc3cccc(OCC4CCCN4C)c3)nn12` (stereo not shown) [Example 1006], the IC50 in experiment [1] (setting [3]) and in experiment [2] (setting [4]) was less than 0.1 µM throughout.
For `CC(C)(C)NS(=O)(=O)c1cccc(-c2ccc3cnc(Nc4ccc(=O)[nH]c4)nn23)c1` [Example 590, N-tert-Butyl-3-[2-(6-oxo-1,6-dihydro-pyridin-3-ylamino)-pyrrolo[2,1-f][1,2,4]triazin-7-yl]-benzenesulfonamide], the IC50 was less than 0.1 µM in experiment [1] (setting [3]) and 1 to 10 µM in experiment [2] (setting [4]).
In the same order, the values of `COc1cc(C2CCN(C[C@H](O)CO)CC2)ccc1Nc1ncc2ccc(-c3ccccc3OC)n2n1` [Example 761, (S)-3-(4-{3-Methoxy-4-[7-(2-methoxy-phenyl)-pyrrolo[2,1-f][1,2,4]triazin-2-ylamino]-phenyl}-piperidin-1-yl)-propane-1,2-diol] are 0.1 to 1 µM and less than 0.1 µM.
As to `COc1ccccc1-c1ccc2cnc(Nc3cccc(C(=O)N4CCOCC4)c3)nn12` [Example 327, {3-[7-(2-Methoxy-phenyl)-pyrrolo[2,1-f][1,2,4]triazin-2-ylamino]-phenyl}-morpholin-4-yl-methanone], the IC50 in experiment [1] (JAK2 Kinase Inhibition) is less than 0.1 µM; in experiment [2] (ALK Kinase Inhibition) it was 1 to 10 µM.
For `COc1cc(N2CCC(N3CCC(F)(F)CC3)CC2)ccc1Nc1ncc2ccc(-c3ccccc3N(C)S(C)(=O)=O)n2n1` [Example 1474, N-(2-{2-[4-(4,4-Difluoro-[1,4′]bipiperidinyl-1′-yl)-2-methoxy-phenylamino]-pyrrolo[2,1-f][1,2,4]triazin-7-yl}-phenyl)-N-methyl-methanesulfonamide], in that order: 0.1 to 1 µM and less than 0.1 µM.
For `CS(=O)(=O)c1ccc(-c2ccc3cnc(Nc4ccc5[nH]c(CN6CCN(CCO)CC6)nc5c4)nn23)cc1` [Example 1543, 2-(4-{5-[7-(4-Methanesulfonyl-phenyl)-pyrrolo[2,1-f][1,2,4]triazin-2-ylamino]-1H-benzimidazol-2-ylmethyl}-piperazin-1-yl)-ethanol], in that order: less than 0.1 µM and 1 to 10 µM.
`CC(C)S(=O)(=O)c1cccc(-c2ccc3cnc(Nc4ccc(Cl)c(OC[C@@H]5CCCN5)c4)nn23)c1` [Example 1015, [4-Chloro-3-((S)-1-pyrrolidin-2-ylmethoxy)-phenyl]-{7-[3-(propane-2-sulfonyl)-phenyl]-pyrrolo[2,1-f][1,2,4]triazin-2-yl}-amine]: the figures for the IC50 in experiment [1] (setting [3]) and in experiment [2] (setting [4]) were less than 0.1 µM and 0.1 to 1 µM, respectively.
As to `CNC(=O)c1ccc(-c2ccc3cnc(Nc4ccc(N5CCOCC5)cc4)nn23)cc1` [Example 55, N-Methyl-4-[2-(4-morpholin-4-yl-phenylamino)-pyrrolo[2,1-f][1,2,4]triazin-7-yl]-benzamide], the IC50 was less than 0.1 µM in experiment [1] (JAK2 Kinase Inhibition) and 1 to 10 µM in experiment [2] (ALK Kinase Inhibition).
As to “[7-(2-Methoxy-phenyl)-pyrrolo[2,1-f][1,2,4]triazin-2-yl]-(2-methyl-1,2,3,4-tetrahydro-isoquinolin-7-yl)-amine [Example 984]”, the values for the IC50 in experiment [1] (setting [3]) and in experiment [2] (setting [4]) were less than 0.1 µM and 0.1 to 1 µM, respectively.
For `COc1cc(C2CCN(C(=O)CN)CC2)ccc1Nc1ncc2ccc(-c3ccccc3N(C)S(C)(=O)=O)n2n1` [Example 824, N-[2-(2-{4-[1-(2-Amino-acetyl)-piperidin-4-yl]-2-methoxy-phenylamino}-pyrrolo[2,1-f][1,2,4]triazin-7-yl)-phenyl]-N-methyl-methanesulfonamide], in that order: 1 to 10 µM and less than 0.1 µM.
For the compound `CN(c1ccccc1-c1ccc2cnc(Nc3ccc4c(c3)NC(=O)C(C)(C)O4)nn12)S(C)(=O)=O` [Example 1371, N-{2-[2-(2,2-Dimethyl-3-oxo-3,4-dihydro-2H-1,4-benzoxazin-6-ylamino)-pyrrolo[2,1-f][1,2,4]triazin-7-yl]-phenyl}-N-methyl-methanesulfonamide], the IC50 in experiment [1] (JAK2 Kinase Inhibition) is less than 0.1 µM; in experiment [2] (ALK Kinase Inhibition) it was 0.1 to 1 µM.
In the same order, the values of `COCCN1CCc2ccc(Nc3ncc4ccc(-c5ccccc5S(=O)(=O)N5CCCC5)n4n3)cc2CC1` [Example 32, [3-(2-Methoxy-ethyl)-2,3,4,5-tetrahydro-1H-benzo[d]azepin-7-yl]-{7-[2-(pyrrolidine-1-sulfonyl)-phenyl]-pyrrolo[2,1-f][1,2,4]triazin-2-yl}-amine] are less than 0.1 µM and 0.1 to 1 µM.
For the compound `CN1CCN(Cc2nc3cc(Nc4ncc5ccc(-c6ccc(S(C)(=O)=O)cc6)n5n4)ccc3[nH]2)CC1` [Example 1542, [7-(4-Methanesulfonyl-phenyl)-pyrrolo[2,1-f][1,2,4]triazin-2-yl]-[2-(4-methyl-piperazin-1-ylmethyl)-1H-benzimidazol-5-yl]-amine], the IC50 in experiment [1] (JAK2 Kinase Inhibition) is less than 0.1 µM; in experiment [2] (ALK Kinase Inhibition) it was 1 to 10 µM.
As to `COc1c(Nc2ncc3ccc(-c4ccccc4N(C)S(C)(=O)=O)n3n2)cccc1C1CCN(C)CC1` [Example 776, N-(2-{2-[2-Methoxy-3-(1-methyl-piperidin-4-yl)-phenylamino]-pyrrolo [2,1-f][1,2,4]triazin-7-yl}-phenyl)-N-methyl-methanesulfonamide], the IC50 in experiment [1] (setting [3]) and in experiment [2] (setting [4]) was less than 0.1 µM in each case.
Turning to `CN1CCN(c2cccc(Nc3ncc4ccc(-c5cccc(CO)c5)n4n3)c2)CC1` [Example 1557, (3-{2-[3-(4-Methyl-piperazin-1-yl)-phenylamino]-pyrrolo[2,1-f][1,2,4]triazin-7-yl}-phenyl)-methanol], the IC50 in experiment [1] (JAK2 Kinase Inhibition) and in experiment [2] (ALK Kinase Inhibition) was less than 0.1 µM in each case.
As for `COc1cc2c(cc1Nc1ncc3ccc(-c4cccc(S(=O)(=O)NC5CC5)c4)n3n1)CCN(C[C@@H](C)O)CC2` [Example 523, N-Cyclopropyl-3-{2-[3-((R)-2-hydroxy-propyl)-8-methoxy-2,3,4,5-tetrahydro-1H-benzo[d]azepin-7-ylamino]-pyrrolo[2,1-f][1,2,4]triazin-7-yl}benzenesulfonamide], the IC50 in experiment [1] (setting [3]) is 0.1 to 1 µM; in experiment [2] (setting [4]) it was less than 0.1 µM.
In the same order, the values of `COc1cc(C2CCN(C(=O)CN(C)C)CC2)ccc1Nc1ncc2ccc(-c3ccccc3OC)n2n1` [Example 815, 2-Dimethylamino-1-(4-{3-methoxy-4-[7-(2-methoxy-phenyl)-pyrrolo[2,1-f][1,2,4]triazin-2-ylamino]-phenyl}-piperidin-1-yl)-ethanone] are 0.1 to 1 µM and less than 0.1 µM.
For “[7-(4-Methanesulfonyl-phenyl)-pyrrolo[2,1-f][1,2,4]triazin-2-yl]-[2-methoxy-4-(4-methyl-piperazin-1-yl)-phenyl]-amine [Example 1126]”, in that order: less than 0.1 µM and less than 0.1 µM.
In the same order, the values of `COc1cc2c(cc1Nc1ncc3ccc(-c4ccccc4OC)n3n1)CN(C(=O)CN)C2` [Example 878, 2-Amino-1-{5-methoxy-6-[7-(2-methoxy-phenyl)-pyrrolo[2,1-f][1,2,4]triazin-2-ylamino]-1,3-dihydro-isoindol-2-yl}-ethanone] are less than 0.1 µM and less than 0.1 µM.
Take `CN1CCN(C(=O)c2ccc(Nc3ncc4ccc(-c5cccc(Cl)c5)n4n3)cc2)CC1` [Example 320, {4-[7-(3-Chloro-phenyl)-pyrrolo[2,1-f][1,2,4]triazin-2-ylamino]-phenyl}-(4-methyl-piperazin-1-yl)-methanone]: the IC50 in experiment [1] (JAK2 Kinase Inhibition) is less than 0.1 µM; in experiment [2] (ALK Kinase Inhibition), 0.1 to 1 µM.
Turning to `CN1CCN(C(=O)c2cccc(Nc3ncc4ccc(-c5cccc(S(=O)(=O)NC(C)(C)C)c5)n4n3)c2)CC1` [Example 891, N-tert-Butyl-3-{2-[3-(4-methyl-piperazine-1-carbonyl)-phenylamino]-pyrrolo[2,1-f][1,2,4]triazin-7-yl}-benzenesulfonamide], the values for the IC50 in experiment [1] (setting [3]) and in experiment [2] (setting [4]) were less than 0.1 µM and 0.1 to 1 µM, respectively.
Take `CN1CCN(C(=O)C2CCCN(c3ccc(Nc4ncc5ccc(-c6ccccc6N(C)S(C)(=O)=O)n5n4)cc3)C2)CC1` (stereo not shown) [Example 447, N-Methyl-N-[2-(2-{4-[3-(4-methyl-piperazine-1-carbonyl)-piperidin-1-yl]-phenylamino}-pyrrolo[2,1-f][1,2,4]triazin-7-yl)-phenyl]-methanesulfonamide]: the IC50 in experiment [1] (JAK2 Kinase Inhibition) and in experiment [2] (ALK Kinase Inhibition) was less than 0.1 µM throughout.
For the compound `CN1CCOCc2cc(Nc3ncc4ccc(-c5ccc(S(C)(=O)=O)cc5)n4n3)ccc21` [Example 617, [7-(4-Methanesulfonyl-phenyl)-pyrrolo[2,1-f][1,2,4]triazin-2-yl]-(1-methyl-1,2,3,5-tetrahydro-benzo[e][1,4]oxazepin-7-yl)-amine], the IC50 is less than 0.1 µM in experiment [1] (setting [3]) and 1 to 10 µM in experiment [2] (setting [4]).
Regarding `CN1CCN(c2cccc(Nc3ncc4ccc(-c5cccc(N6CCCS6(=O)=O)c5)n4n3)c2)CC1` [Example 1509, 7-[3-(1,1-Dioxido-1,2-thiazolidin-2-yl)phenyl]-N-[3-(4-methylpiperazin-1-yl)phenyl]pyrrolo[2,1-f][1,2,4]triazin-2-amine], the IC50 in experiment [1] (JAK2 Kinase Inhibition) is less than 0.1 µM; in experiment [2] (ALK Kinase Inhibition), 0.1 to 1 µM.
For `NC(=O)CN1CCC(c2ccc(Nc3ncc4ccc(-c5ccccc5O)n4n3)cc2)CC1` [Example 1427, 2-(4-{4-[7-(2-Hydroxy-phenyl)-pyrrolo[2,1-f][1,2,4]triazin-2-ylamino]-phenyl}-piperidin-1-yl)-acetamide], in that order: less than 0.1 µM and 0.1 to 1 µM.
